Results published in patent US10647732B2, “N-annulated perylene diimide dimers with active pyrrolic N—H bonds” (UTI Limited Partnership, priority 2018, dated 2020).
In brackets after ≈: the same amount, converted by molar mass.

Tests used:
physchem = conditions: organic solvent or mixture
[1] = Thermal stability by TGA and DSC; format: physicochemical
Description: Decomposition occurred above 390° C. as determined by thermal gravimetric analysis (TGA, FIG. 4A) and no phase transitions were observed up to 350° C. as determined by differential scanning calorimetry (DSC) (see FIG. 5A). This stability is similar to that of compound 5. TGA of compound 4 is illustrated in FIG. 4B. The TGA were run under N2 at 2° C. per min.
The impact of thermal annealing on the thin-film optical absorption profile is an important factor for use of such dimers. The BOC functionalized derivative 4 was synthesized at least in part to enable facile solution processing of the PDI dimer and generation of 3 in the solid film through thermal deprotection after film formation. FIGS. 5A-5C are DSC plots for compounds 3, 4 and 5, respectively, run under N2 at 10° C. per min. For clarity, the second and third trials of each cooling run and the third trial of each heating run is omitted for all species because the data is indistinguishable from previous runs. During the first heating trial of compound 4, an endothermic peak is clearly present in the plot with an onset occurring at 160° C. This was assumed to be the temperature where cleavage of the protecting group begins to occur and this is confirmed by the fact that this feature is not present in the second heating trial, which has a profile strongly resembling that of the heated NH Dimer 3 and further confirmed by bulk deprotection of compound 4 in an oven at 180° C. The first heating trial of compound 3 features a smooth, downward sloping line. […] This feature is due to a cold-crystallization and has previously been observed in similar molecules.
Thus, films were thermally annealed above this temperature (e.g., at 200° C.) to ensure the BOC protecting group was removed. Films of all three compounds 3-5 were studied.

[2] = Cyclic voltammetry in dichloromethane solution; format: physicochemical
Description: The electron affinity, 3.8 eV, and ionization potential, 5.8 eV, were determined from the onset of reduction (ca. −1.0V) and oxidation (ca. 1.0V), respectively, using a conversion value of 4.8. These values are similar to those of previously reported PDI dimers and indicate that compound 3 is suitable for use as an electron acceptor and transporting material in organic electronic devices. An analogous normalized CV plot of compound 4 is provided in FIG. 2B, where no oxidation is observed due to the electron withdrawing nature of the BOC group.
Cyclic Voltammetry (CV): All electrochemical measurements were performed using a CH Instruments potentiostat in a standard three-electrode configuration equipped with a silver wire pseudo-reference, platinum wire counter electrode and glassy carbon working electrode. The cyclic voltammetry experiments were performed in an anhydrous solution of dichloromethane (CH2Cl2) with ˜0.1 M tetrabutylammonium-hexafluorophosphate (TBAPF6) supporting electrolyte. Samples were scanned at a rate of 100 mV/s following a dry N2 purge to deoxygenate the solution, unless otherwise noted. Solution CV measurements were carried out with a sample concentration of ˜0.5 mg/mL in CH2Cl2, unless otherwise noted. Estimations of the energy levels were obtained by correlating the onset (Eox Fc/Fc+, Ered Fc/Fc+) to the normal hydrogen electrode (NHE), assuming a HOMO energy level of 4.80 eV for Fc/Fc+: E(HOMO)=−(Eox+4.80), E(LUMO)=−(Ered+4.80) UV-Visible Spectroscopy (UV/vis): All absorption measurements were recorded using an Agilent Technologies Cary 60 UV-vis spectrometer at room temperature. All solution UV/vis experiments were run in chloroform (CHCl3) using 2 mm quartz cuvettes and diluted 1% wt/v solutions, unless otherwise noted. Thin-films were prepared by spin-coating 1% wt/v solutions from CHCl3 onto Corning glass micro slides, unless otherwise noted. Prior to use, glass slides were cleaned with soap and water, acetone and isopropanol, and followed by UV/ozone treatment using a Novascan UV/ozone cleaning system.

[3] = Solubility in organic solvents; conditions: organic solvent or mixture

With CCC(CC)n1c(=O)c2ccc3c4c(-c5cc6c(=O)n(C(CC)CC)c(=O)c7cc8[nH]c9cc%10c(=O)n(C(CC)CC)c(=O)c%11ccc%12c5c(c67)c8c9c%12c%11%10)cc5c(=O)n(C(CC)CC)c(=O)c6cc7[nH]c8cc(c1=O)c2c3c8c7c4c56 [Compound 3, tPDI2N—H] the solubility (physchem) was about 5000 µg/mL (≈ 4.61 mM), the decomposition temperature ([1]; TGA under N2 at 2° C. per min) was “above 390 °C” and the “oxidation waves E1/2” value ([2]; dichloromethane solution, hexafluorophosphate electrolyte) was 1.1 V vs. Fc/Fc+. The ionization potential ([2]; from onset of oxidation (ca. 1.0V), conversion value of 4.8) was 5.8 eV and the electron affinity ([2]; from onset of reduction (ca. -1.0V), conversion value of 4.8) was 3.8 eV.
With CCC(CC)n1c(=O)c2ccc3c4c(-c5cc6c(=O)n(C(CC)CC)c(=O)c7cc8c9c(c5c5ccc%10c(=O)n(C(CC)CC)c(=O)c%11cc(c9c5c%10%11)n8C(=O)OC(C)(C)C)c67)cc5c(=O)n(C(CC)CC)c(=O)c6cc7c(c4c56)c4c3c2c(cc4n7C(=O)OC(C)(C)C)c1=O [Compound 4, tPDI2N—BOC] the “onset of endothermic peak (cleavage of the protecting group begins)” value ([1]; DSC first heating trial, under N2 at 10° C. per min) was 160 °C and the “loss of the BOC group” value ([1]; TGA and DSC) was about 170 °C.
CCCCCCn1c2cc3c(=O)n(C(CC)CC)c(=O)c4ccc5c6c(-c7cc8c(=O)n(C(CC)CC)c(=O)c9cc%10c%11c(c7c7ccc%12c(=O)n(C(CC)CC)c(=O)c%13cc(c%11c7c%12%13)n%10CCCCCC)c89)cc7c(=O)n(C(CC)CC)c(=O)c8cc1c(c6c78)c2c5c43 [Compound 5, tPDI2N-Hex] showed a solubility [3] of over 50000 µg/mL.
